≈ marks a conversion by molar mass, not a printed value.
What was measured:
[1] = Plasma concentration in Hartley guinea pig at 30 mg/kg, po after 4 hrs post dosing; assay type: ADME, organism-based, Cavia porcellus; set-up: dose 30 mg/kg, route oral
[2] = Aqueous kinetic solubility of the compound at pH 6.5; assay type: physicochemical; conditions: read-out: Kinetic_solubility
Cavia porcellus [3] = experiment: Antialzheimer activity in po dosed Hartley guinea pig assessed as reduction in brain amyloid beta 40 level measured after 4 hrs post dosing; assay type: functional, organism-based
Cytochrome P450 2C8 = molecular target: T1, Cytochrome P450 2C8 (Homo sapiens, UniProt P10632); experiment: Inhibition of CYP2C8 (unknown origin); assay type: ADME
T1 sequence (P10632 whole entry): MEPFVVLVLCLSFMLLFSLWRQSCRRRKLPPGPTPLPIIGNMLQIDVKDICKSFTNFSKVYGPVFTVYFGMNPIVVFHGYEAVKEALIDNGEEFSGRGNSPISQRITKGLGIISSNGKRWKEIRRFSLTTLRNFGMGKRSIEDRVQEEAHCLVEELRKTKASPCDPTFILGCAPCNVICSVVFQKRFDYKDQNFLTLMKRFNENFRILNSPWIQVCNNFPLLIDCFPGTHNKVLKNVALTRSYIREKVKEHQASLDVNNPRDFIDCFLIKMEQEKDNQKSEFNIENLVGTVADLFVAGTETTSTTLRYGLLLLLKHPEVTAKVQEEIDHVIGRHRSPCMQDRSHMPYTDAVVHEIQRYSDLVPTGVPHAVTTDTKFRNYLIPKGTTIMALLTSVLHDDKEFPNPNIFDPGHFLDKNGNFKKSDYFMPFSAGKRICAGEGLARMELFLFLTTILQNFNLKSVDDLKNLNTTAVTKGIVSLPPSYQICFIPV

Cavia porcellus [4] = experiment: Antialzheimer activity in Hartley guinea pig assessed as reduction in brain total amyloid beta level at 90 mg/kg, po measured after 4 hrs post dosing relative to control; assay type: functional; set-up: scale not given: the % may be the effect or the level left
Cavia porcellus [5] = experiment: Antialzheimer activity in Hartley guinea pig assessed as increase in brain amyloid beta 38 level at 90 mg/kg, po measured after 4 hrs post dosing relative to control; assay type: functional
Cavia porcellus [6] = experiment: Antialzheimer activity in Hartley guinea pig assessed as reduction in brain total amyloid beta level at 30 mg/kg, po measured after 4 hrs post dosing relative to control; assay type: functional; set-up: scale not given: the % may be the effect or the level left
Cavia porcellus [7] = experiment: Antialzheimer activity in po dosed Hartley guinea pig assessed as reduction in brain amyloid beta 42 level measured after 4 hrs post dosing; assay type: functional, organism-based
[8] = Drug uptake in Hartley guinea pig cerebrospinal fluid at 30 mg/kg, po after 4 hrs post dosing; assay type: ADME, organism-based, Cavia porcellus; set-up: dose 30 mg/kg, route oral; conditions: read-out: Drug uptake
[9] = Fraction unbound in Hartley guinea pig brain; assay type: ADME, tissue-based, Cavia porcellus
[10] = Ratio of drug uptake in brain to plasma in rat at 5 mg/kg, po after 1 hr; assay type: ADME, organism-based; set-up: dose 5 mg/kg, route oral; conditions: read-out: BPR
Cytochrome P450 2C19 = Cytochrome P450 2C19 (Homo sapiens, UniProt P33261); experiment: Inhibition of CYP2C19 (unknown origin); assay type: ADME
Cavia porcellus [11] = experiment: Antialzheimer activity in Hartley guinea pig assessed as reduction in brain amyloid beta 42 level at 10 mg/kg, po measured after 4 hrs post dosing relative to control; assay type: functional; set-up: scale not given: the % may be the effect or the level left
[12] = Drug uptake in Hartley guinea pig brain at 10 mg/kg, po after 4 hrs post dosing; assay type: ADME, organism-based, Cavia porcellus; set-up: dose 10 mg/kg, route oral; conditions: read-out: Drug uptake
[13] = Drug uptake in Hartley guinea pig cerebrospinal fluid at 90 mg/kg, po after 4 hrs post dosing; assay type: ADME, organism-based, Cavia porcellus; set-up: dose 90 mg/kg, route oral; conditions: read-out: Drug uptake
Cavia porcellus [14] = experiment: Antialzheimer activity in Hartley guinea pig assessed as reduction in brain amyloid beta 42 level at 30 mg/kg, po measured after 4 hrs post dosing relative to control; assay type: functional; set-up: scale not given: the % may be the effect or the level left
[15] = Passive apparent permeability from apical to basolateral side in RRCK cells; assay type: ADME, cell-based, Canis lupus familiaris, MDCKII-LE; conditions: dog, MDCK
[16] = Drug uptake in rat brain at 5 mg/kg, po after 1 hr; assay type: ADME, organism-based; set-up: dose 5 mg/kg, route oral; conditions: read-out: Drug uptake
Cavia porcellus [17] = experiment: Antialzheimer activity in Hartley guinea pig assessed as reduction in brain total amyloid beta level at 10 mg/kg, po measured after 4 hrs post dosing relative to control; assay type: functional; set-up: scale not given: the % may be the effect or the level left
[18] = Bioavailability in rat at 1 mg/kg, iv and 5 mg/kg, po; assay type: ADME, organism-based; conditions: in vivo
[19] = Plasma concentration in Hartley guinea pig at 10 mg/kg, po after 4 hrs post dosing; assay type: ADME, organism-based, Cavia porcellus; set-up: dose 10 mg/kg, route oral
[20] = Plasma concentration in Hartley guinea pig at 90 mg/kg, po after 4 hrs post dosing; assay type: ADME, organism-based, Cavia porcellus; set-up: dose 90 mg/kg, route oral
[21] = Clearance in rat at 1 mg/kg, iv; assay type: ADME, organism-based; set-up: dose 1 mg/kg, route intravenous; conditions: in vivo
Cytochrome P450 1A2 = molecular target: T2, Cytochrome P450 1A2 (Homo sapiens, UniProt P05177); experiment: Inhibition of CYP1A2 (unknown origin); assay type: ADME
T2 sequence (P05177 whole entry): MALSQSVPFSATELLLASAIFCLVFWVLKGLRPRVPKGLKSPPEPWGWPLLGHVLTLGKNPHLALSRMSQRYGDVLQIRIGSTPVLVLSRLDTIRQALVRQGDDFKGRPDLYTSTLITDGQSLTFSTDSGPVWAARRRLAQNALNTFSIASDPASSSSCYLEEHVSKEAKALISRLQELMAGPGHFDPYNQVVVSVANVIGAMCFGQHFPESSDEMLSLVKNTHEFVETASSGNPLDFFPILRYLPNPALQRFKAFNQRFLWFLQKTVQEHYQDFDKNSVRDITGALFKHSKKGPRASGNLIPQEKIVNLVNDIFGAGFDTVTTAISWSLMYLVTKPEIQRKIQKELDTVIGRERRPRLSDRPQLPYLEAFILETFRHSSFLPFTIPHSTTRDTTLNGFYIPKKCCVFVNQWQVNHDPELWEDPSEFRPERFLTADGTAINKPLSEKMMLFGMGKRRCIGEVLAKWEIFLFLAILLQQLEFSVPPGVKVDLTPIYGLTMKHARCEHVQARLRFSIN

[22] = Half life in rat at 1 mg/kg, iv; assay type: ADME, organism-based; set-up: dose 1 mg/kg, route intravenous; conditions: in vivo
[23] = Drug uptake in Hartley guinea pig brain at 90 mg/kg, po after 4 hrs post dosing; assay type: ADME, organism-based, Cavia porcellus; set-up: dose 90 mg/kg, route oral; conditions: read-out: Drug uptake
[24] = Volume of distribution at steady state in rat at 1 mg/kg, iv; assay type: ADME, organism-based; set-up: dose 1 mg/kg, route intravenous; conditions: in vivo, read-out: Vdss
Gamma-secretase [25] = experiment: Modulation of gamma secretase in HEK293 NdeltaE cells assessed as inhibition of notch signalling; assay type: cell-based, Homo sapiens
Cytochrome P450 2D6 = Cytochrome P450 2D6 (Homo sapiens, UniProt P10635); experiment: Inhibition of CYP2D6 (unknown origin); assay type: ADME
[26] = Fraction unbound in rat plasma; assay type: ADME, cell-free
Cavia porcellus [27] = experiment: Antialzheimer activity in Hartley guinea pig assessed as increase in brain amyloid beta 38 level at 30 mg/kg, po measured after 4 hrs post dosing relative to control; assay type: functional
[28] = Apparent intrinsic clearance in rat liver microsomes; assay type: ADME; conditions: read-out: CLH(app)
Cytochrome P450 3A4 = Cytochrome P450 3A4 (Homo sapiens, UniProt P08684); experiment: Inhibition of CYP3A4 (unknown origin); assay type: ADME
Cytochrome P450 2C9 = Cytochrome P450 2C9 (Homo sapiens, UniProt P11712); experiment: Inhibition of CYP2C9 (unknown origin); assay type: ADME
[29] = Plasma concentration in rat at 5 mg/kg, po after 1 hr; assay type: ADME, organism-based; set-up: dose 5 mg/kg, route oral
Cavia porcellus [30] = experiment: Antialzheimer activity in Hartley guinea pig assessed as reduction in brain amyloid beta 40 level at 10 mg/kg, po measured after 4 hrs post dosing relative to control; assay type: functional; set-up: scale not given: the % may be the effect or the level left
MDR1 (human) [31] = experiment: Permeability from apical to basolateral side in MDCK cells expressing human MDR; assay type: ADME, cell-based, Canis lupus familiaris; conditions: dog, read-out: permeability
[32] = Drug uptake in Hartley guinea pig cerebrospinal fluid at 10 mg/kg, po after 4 hrs post dosing; assay type: ADME, organism-based, Cavia porcellus; set-up: dose 10 mg/kg, route oral; conditions: read-out: Drug uptake
Cavia porcellus [33] = experiment: Antialzheimer activity in Hartley guinea pig assessed as increase in brain amyloid beta 38 level at 10 mg/kg, po measured after 4 hrs post dosing relative to control; assay type: functional
Cavia porcellus [34] = experiment: Antialzheimer activity in Hartley guinea pig assessed as reduction in brain amyloid beta 40 level at 30 mg/kg, po measured after 4 hrs post dosing relative to control; assay type: functional; set-up: scale not given: the % may be the effect or the level left
[35] = Apparent intrinsic clearance in human liver microsomes; assay type: ADME; conditions: read-out: CLH(app)
Cavia porcellus [36] = experiment: Antialzheimer activity in Hartley guinea pig assessed as reduction in brain amyloid beta 40 level at 90 mg/kg, po measured after 4 hrs post dosing relative to control; assay type: functional; set-up: scale not given: the % may be the effect or the level left
Gamma-secretase [37] = experiment: Modulation of gamma-secretase (unknown origin) expressed in CHO cells overexpressing human wild type APP assessed as reduction of amyloid beta 42 level after 24 hrs by ELISA; assay type: cell-based
MDR1 (human) [38] = experiment: Efflux ratio of permeability in MDCK cells expressing human MDR1; assay type: ADME, cell-based, Canis lupus familiaris; conditions: dog
[39] = Lipophilicity, log D of the compound by shake flask method; assay type: physicochemical; conditions: octanol/water
Cavia porcellus [40] = experiment: Antialzheimer activity in Hartley guinea pig assessed as reduction in brain amyloid beta 42 level at 90 mg/kg, po measured after 4 hrs post dosing relative to control; assay type: functional; set-up: scale not given: the % may be the effect or the level left
[41] = Drug uptake in Hartley guinea pig brain at 30 mg/kg, po after 4 hrs post dosing; assay type: ADME, organism-based, Cavia porcellus; set-up: dose 30 mg/kg, route oral; conditions: read-out: Drug uptake
[42] = Ratio of unbound drug level in brain to plasma in rat; assay type: ADME
[43] = Fraction unbound in Hartley guinea pig plasma; assay type: ADME, cell-free, Cavia porcellus
[44] = Fraction unbound in rat brain; assay type: ADME, tissue-based

Chain of Cytochrome P450 2D6 (P10635 whole entry): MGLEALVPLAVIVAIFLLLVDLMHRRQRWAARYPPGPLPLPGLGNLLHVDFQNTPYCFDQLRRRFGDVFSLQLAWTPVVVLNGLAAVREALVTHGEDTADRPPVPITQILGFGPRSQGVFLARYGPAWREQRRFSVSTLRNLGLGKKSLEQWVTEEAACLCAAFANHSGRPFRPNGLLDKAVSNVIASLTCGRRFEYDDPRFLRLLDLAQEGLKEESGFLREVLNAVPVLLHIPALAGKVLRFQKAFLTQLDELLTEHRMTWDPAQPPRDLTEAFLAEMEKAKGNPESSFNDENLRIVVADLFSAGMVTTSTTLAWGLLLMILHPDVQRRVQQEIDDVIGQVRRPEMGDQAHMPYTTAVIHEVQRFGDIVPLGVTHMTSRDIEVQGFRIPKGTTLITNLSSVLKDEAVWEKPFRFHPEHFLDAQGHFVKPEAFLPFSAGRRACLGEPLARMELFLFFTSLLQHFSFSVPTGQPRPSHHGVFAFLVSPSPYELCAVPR
Chain of Cytochrome P450 3A4 (P08684 whole entry): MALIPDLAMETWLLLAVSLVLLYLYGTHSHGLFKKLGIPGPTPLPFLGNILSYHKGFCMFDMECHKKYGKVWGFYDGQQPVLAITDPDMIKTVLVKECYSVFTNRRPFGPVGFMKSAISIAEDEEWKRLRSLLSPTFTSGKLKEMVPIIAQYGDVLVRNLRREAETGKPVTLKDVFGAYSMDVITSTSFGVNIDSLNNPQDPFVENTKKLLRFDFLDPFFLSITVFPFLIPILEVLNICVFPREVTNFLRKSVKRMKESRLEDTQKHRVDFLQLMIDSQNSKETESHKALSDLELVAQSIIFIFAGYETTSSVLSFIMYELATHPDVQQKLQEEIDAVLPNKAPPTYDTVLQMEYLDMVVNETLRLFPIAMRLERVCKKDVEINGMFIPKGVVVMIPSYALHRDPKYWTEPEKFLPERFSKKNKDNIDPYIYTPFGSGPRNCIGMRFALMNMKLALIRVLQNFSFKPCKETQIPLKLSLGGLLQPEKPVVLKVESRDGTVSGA
Chain of Cytochrome P450 2C19 (P33261 whole entry): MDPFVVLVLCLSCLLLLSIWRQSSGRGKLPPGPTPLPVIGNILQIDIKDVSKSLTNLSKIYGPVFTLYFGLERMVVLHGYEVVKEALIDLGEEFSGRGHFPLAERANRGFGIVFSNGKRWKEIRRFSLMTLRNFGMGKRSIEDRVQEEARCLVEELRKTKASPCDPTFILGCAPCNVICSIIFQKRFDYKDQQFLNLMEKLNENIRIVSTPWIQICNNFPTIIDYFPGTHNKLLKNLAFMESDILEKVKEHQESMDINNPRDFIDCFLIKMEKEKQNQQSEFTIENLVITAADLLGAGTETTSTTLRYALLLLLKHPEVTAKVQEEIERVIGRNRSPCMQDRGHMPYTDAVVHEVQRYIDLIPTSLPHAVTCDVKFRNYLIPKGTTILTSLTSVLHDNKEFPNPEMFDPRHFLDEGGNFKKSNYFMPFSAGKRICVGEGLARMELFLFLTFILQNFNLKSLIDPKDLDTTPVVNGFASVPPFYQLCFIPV
Chain of Cytochrome P450 2C9 (P11712 whole entry): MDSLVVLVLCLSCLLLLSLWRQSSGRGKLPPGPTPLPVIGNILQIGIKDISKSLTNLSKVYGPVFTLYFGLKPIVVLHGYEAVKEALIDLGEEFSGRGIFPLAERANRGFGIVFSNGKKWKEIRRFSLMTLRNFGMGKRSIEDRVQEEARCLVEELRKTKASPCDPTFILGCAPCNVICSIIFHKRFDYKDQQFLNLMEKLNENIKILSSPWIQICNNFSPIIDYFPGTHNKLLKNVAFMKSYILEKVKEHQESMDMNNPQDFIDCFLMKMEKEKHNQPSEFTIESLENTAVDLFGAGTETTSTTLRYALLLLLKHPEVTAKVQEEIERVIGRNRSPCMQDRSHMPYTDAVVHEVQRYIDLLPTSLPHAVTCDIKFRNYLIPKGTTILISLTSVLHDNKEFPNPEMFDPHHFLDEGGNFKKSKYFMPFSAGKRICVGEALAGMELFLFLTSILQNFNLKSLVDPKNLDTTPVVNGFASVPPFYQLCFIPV

## Cc1cn(-c2ccc3n(c2=O)CCN(CCOc2ccc(Cl)cc2C(F)(F)F)C3=O)cn1
[1]
  concentration at 4 h: 819 nM
[2]
  solubility kinetic: 95.6 µM (≈ 44.6 µg/mL)
Cavia porcellus [3]
  Activity: Dose-dependent effect
Cytochrome P450 2C8
  IC50: 12.3 µM
Cavia porcellus [4]
  Activity: 82%
Cavia porcellus [5]
  Activity: 131%
Cavia porcellus [6]
  Activity: 92%
Cavia porcellus [7]
  Activity: Dose-dependent effect
[8]
  concentration at 4 h: 35.7 nM
[9]
  fraction unbound: 0.008
[10]
  Kp at 1 h: 0.24
Cytochrome P450 2C19
  IC50: > 30 µM
Cavia porcellus [11]
  Activity: 81%
[12]
  concentration at 4 h: 2910 nM
[13]
  concentration at 4 h: 239 nM
Cavia porcellus [14]
  Activity: 56%
[15]
  Papp A→B: 10.5 ×10⁻⁶ cm/s
[16]
  concentration at 1 h: 1000 ng/mL
Cavia porcellus [17]
  Activity: 100%
[18]
  bioavailability: 88%
[19]
  concentration at 4 h: 367 nM
[20]
  concentration at 4 h: 7300 nM
[21]
  clearance: 1.41 mL/min/kg
Cytochrome P450 1A2
  IC50: > 30 µM
[22]
  half-life: 6.88 h
[23]
  concentration at 4 h: 52400 nM
[24]
  Vd: 0.69 L/kg
Gamma-secretase [25]
  IC50: > 50 µM
Cytochrome P450 2D6
  IC50: > 30 µM
[26]
  fraction unbound: 0.0063
Cavia porcellus [27]
  Activity: 108%
[28]
  CLint scaled: 47.6 mL/min/kg
Cytochrome P450 3A4
  IC50: > 30 µM
Cytochrome P450 2C9
  IC50: 15.4 µM
[29]
  concentration at 1 h: 4140 ng/mL
Cavia porcellus [30]
  Activity: 88%
MDR1 (human) [31]
  Papp A→B: 5.8 ×10⁻⁶ cm/s
[32]
  concentration at 4 h: 12.7 nM
Cavia porcellus [33]
  Activity: 102%
Cavia porcellus [34]
  Activity: 69%
[35]
  CLint scaled: < 8 mL/min/kg
Cavia porcellus [36]
  Activity: 37%
Gamma-secretase [37]
  IC50: 0.101 µM
MDR1 (human) [38]
  efflux ratio: 1.8
[39]
  logD: 3.32
Cavia porcellus [40]
  Activity: 32%
[41]
  concentration at 4 h: 9160 nM
[42]
  Kp uu: 0.32
[43]
  fraction unbound: 0.07
[44]
  fraction unbound: 0.0084

## Cc1cn(-c2ccc3n(c2=O)CCN(Cc2cccc(C(F)(F)F)c2)C3=O)cn1
[28]
  CLint scaled: < 25.4 mL/min/kg
[35]
  CLint scaled: < 8 mL/min/kg
Gamma-secretase [37]
  IC50: 1.63 µM
MDR1 (human) [38]
  efflux ratio: 1.5

From ChEMBL document CHEMBL3124856, “Design, synthesis, and pharmacological evaluation of a novel series of pyridopyrazine-1,6-dione γ-secretase modulators” (J Med Chem, 2014)
